From ChEMBL document CHEMBL1151566, “Cephem sulfones as inactivators of human leukocyte elastase. II. Keto-enol tautomerish in cephem-4-ketones” (Bioorg Med Chem Lett, 1992) come the findings set out here.

A short description of data set [1]: Chemical half-life was evaluated at 37 degree C expressed as stability towards hydrolysis. The class given is physicochemical.
The nature of data set [2]: pKa value was determined. In kind it is physicochemical.
In data set [3] the target is T1, Neutrophil elastase (Homo sapiens) (UniProt P08246).
T1 sequence (whole entry): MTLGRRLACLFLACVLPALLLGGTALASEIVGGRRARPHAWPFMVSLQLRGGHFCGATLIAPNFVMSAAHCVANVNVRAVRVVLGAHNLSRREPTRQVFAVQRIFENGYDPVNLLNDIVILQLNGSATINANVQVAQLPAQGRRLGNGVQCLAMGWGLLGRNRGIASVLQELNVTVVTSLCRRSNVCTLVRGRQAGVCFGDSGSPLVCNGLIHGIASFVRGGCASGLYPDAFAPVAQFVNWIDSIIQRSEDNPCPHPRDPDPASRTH
The experiment in a line: Inhibition of human leukocyte elastase II (HLE-II) as second order rate constant.

By half-life is commonly meant the time needed for the level to fall by half in the phase considered. A high value points to slow loss. Regarding `CO[C@H]1C(=O)N2C(C(=O)C(C)(C)C)=C(C)CS(=O)(=O)[C@H]12`, the half-life in data set [1] is 130 h.
What is called pKa is the negative logarithm of the acid dissociation constant. A lower pKa goes with a stronger acid or weaker base. Take `CO[C@H]1C(=O)N2C(C(=O)c3ccccc3)=C(CSc3nnnn3C)C(Sc3nnnn3C)S(=O)(=O)[C@H]12` (some centres not stated): in data set [2], the pKa was 3.5. For the same compound, the half-life in data set [1] is 850 h.
The corresponding values for `CO[C@H]1C(=O)N2C(C(=O)c3ccccc3)=C(CSc3nnnn3C)CS(=O)(=O)[C@H]12` are 8.4 and 8.6 h.
Compound `CO[C@H]1C(=O)N2C(C(=O)C(C)(C)C)=C(C)C(Sc3nnc(C)s3)S(=O)(=O)[C@H]12` (some centres not stated) returned a pKa in data set [2] of 7.5. In addition, the half-life in data set [1] is 26 h. For the same compound, the k on in data set [3] is 42000 M⁻¹ s⁻¹.
For `CO[C@H]1C(=O)N2C(C(=O)C(C)(C)C)=C(C)C(Sc3nnnn3C)S(=O)(=O)[C@H]12` (some centres not stated), the pKa in data set [2] stood at 7.9. In data set [1], this compound showed a half-life of 14.8 h. The k on in data set [3] amounted to 100000 M⁻¹ s⁻¹.
In turn, `CO[C@H]1C(=O)N2C(C(=O)C(C)(C)C)=C(CSc3nnc(C)s3)CS(=O)(=O)[C@H]12` came in with a pKa in data set [2] of 11.9. In data set [1], this compound gave a half-life of 37 h. In data set [3], this compound yielded a k on of 32000 M⁻¹ s⁻¹.
`CO[C@H]1C(=O)N2C(C(=O)c3ccccc3)=C(C)C(Sc3nnnn3C)S(=O)(=O)[C@H]12` (some centres not stated) registered a pKa in data set [2] of 4.8. The half-life in data set [1] is 120 h. In data set [3], this compound gave a k on of 200 M⁻¹ s⁻¹.
The corresponding values for `CO[C@H]1C(=O)N2C(C(=O)c3ccccc3)=C(C)C(Sc3nc(=O)c(=O)[nH]n3C)S(=O)(=O)[C@H]12` (some centres not stated) are 5.7, 86 h and 930 M⁻¹ s⁻¹.
The corresponding values for `CO[C@H]1C(=O)N2C(C(=O)C(C)(C)C)=C(C)C(Sc3nc(=O)c(=O)[nH]n3C)S(=O)(=O)[C@H]12` (some centres not stated) are 8.9, 16.3 h and 54000 M⁻¹ s⁻¹.
`CO[C@H]1C(=O)N2C(C(=O)C(C)(C)C)=C(CSc3nnc(C)s3)C(Sc3nnc(C)s3)S(=O)(=O)[C@H]12` (some centres not stated): in data set [2], the pKa stood at 5.8. Further, in data set [1], the half-life is 46 h. This compound also displayed a k on in data set [3] of 21000 M⁻¹ s⁻¹.
Consider `CO[C@H]1C(=O)N2C(C(=O)C(C)(C)C)=C(CSc3nnnn3C)CS(=O)(=O)[C@H]12`, for which the pKa in data set [2] is 11.6. In data set [1], this compound had a half-life of 24 h.
The corresponding values for `CO[C@H]1C(=O)N2C(C(=O)c3ccccc3)=C(C)CS(=O)(=O)[C@H]12` are 9.6 and 33 h.
The corresponding values for `CO[C@H]1C(=O)N2C(C(=O)C(C)(C)C)=C(CSc3nnnn3C)C(Sc3nnnn3C)S(=O)(=O)[C@H]12` (some centres not stated) are 6 and 24 h.
